Reference: ChEMBL document CHEMBL3885881, “DrugMatrix”

Organism: Rattus norvegicus
Test: DrugMatrix - Regimen: Daily Repeat
Format: toxicity, organism-based, Sprague-Dawley
Parameters: regimen Daily Repeat, gender Male, age 6-8 weeks
Conditions: in vivo, po, route oral GAVAGE, vehicle 100 % WATER; for ABSOLUTE BASOPHIL / ABSOLUTE EOSINOPHIL / ABSOLUTE LYMPHOCYTE / ABSOLUTE MONOCYTE / ABSOLUTE SEGMENTED NEUTROPHIL / BASOPHIL / EOSINOPHIL / ERYTHROCYTE COUNT / HEMATOCRIT / HEMOGLOBIN / LEUKOCYTE COUNT / LYMPHOCYTE / MEAN CORPUSCULAR HEMOGLOBIN / MEAN CORPUSCULAR HEMOGLOBIN CONCENTRATION / MEAN CORPUSCULAR VOLUME / MONOCYTE / NEUTROPHIL / NUCLEATED RED BLOOD CELLS / PLATELET COUNT: tissue Blood; for ALANINE AMINOTRANSFERASE / ALBUMIN / ALKALINE PHOSPHATASE / ASPARTATE AMINOTRANSFERASE / BLOOD UREA NITROGEN / CARBON DIOXIDE / CHLORIDE / CHOLESTEROL / CREATINE PHOSPHOKINASE / CREATININE / GLUCOSE / LACTATE DEHYDROGENASE / LIPASE / PHOSPHORUS / POTASSIUM / SODIUM / TOTAL BILIRUBIN / TOTAL PROTEIN / URIC ACID: tissue Plasma
[1] = 0 mg/kg, 72 h, dose level Control, time 3 day
[2] = 0 mg/kg, 120 h, dose level Control, time 5 day
[3] = 25 mg/kg, 72 h, dose level Low, time 3 day

SMILES: c1ccc([C@H]2CN3CCSC3=N2)cc1 [LEVAMISOLE]
- ABSOLUTE BASOPHIL [1]: 0 CELLS/uL
- ABSOLUTE EOSINOPHIL [1]: 20.17 CELLS/uL
- ABSOLUTE LYMPHOCYTE [1]: 12371.67 CELLS/uL
- ABSOLUTE MONOCYTE [1]: 166 CELLS/uL
- ABSOLUTE SEGMENTED NEUTROPHIL [1]: 1292.17 CELLS/uL
- BASOPHIL [1]: 0%
- EOSINOPHIL [1]: 0.17%
- ERYTHROCYTE COUNT [1]: 5.46 x10E6/uL
- HEMATOCRIT [1]: 34.38%
- HEMOGLOBIN [1]: 13.32 G/DL
- LEUKOCYTE COUNT [1]: 13.85 x10E3/uL
- LYMPHOCYTE [1]: 88.5%
- MEAN CORPUSCULAR HEMOGLOBIN [1]: 24.42 pg
- MEAN CORPUSCULAR HEMOGLOBIN CONCENTRATION [1]: 38.7 G/DL
- MEAN CORPUSCULAR VOLUME [1]: 63.07 fL
- MONOCYTE [1]: 1.17%
- NEUTROPHIL [1]: 10.17%
- NUCLEATED RED BLOOD CELLS [1]: 0.17 /100WBC
- PLATELET COUNT [1]: 1193.5 x10E3/uL
- ALANINE AMINOTRANSFERASE [1]: 54.5 u/L
- ALBUMIN [1]: 4.02 G/DL
- ALKALINE PHOSPHATASE [1]: 346.5 u/L
- ASPARTATE AMINOTRANSFERASE [1]: 103.17 u/L
- BLOOD UREA NITROGEN [1]: 16.5 mg/dL
- CARBON DIOXIDE [1]: 29.83 mmol/L
- CHLORIDE [1]: 99.5 MEQ/L
- CHOLESTEROL [1]: 72.5 mg/dL
- CREATINE PHOSPHOKINASE [1]: 532.5 u/L
- CREATININE [1]: 0.18 mg/dL
- GLUCOSE [1]: 168.5 mg/dL
- LACTATE DEHYDROGENASE [1]: 536.5 u/L
- LIPASE [1]: 11.17 u/L
- PHOSPHORUS [1]: 11.48 mg/dL
- POTASSIUM [1]: 5.95 MEQ/L
- SODIUM [1]: 140.5 MEQ/L
- TOTAL BILIRUBIN [1]: 0.18 mg/dL
- TOTAL PROTEIN [1]: 5.77 G/DL
- URIC ACID [1]: 1.42 mg/dL
- ABSOLUTE BASOPHIL [2]: 0 CELLS/uL
- ABSOLUTE EOSINOPHIL [2]: 22.83 CELLS/uL
- ABSOLUTE LYMPHOCYTE [2]: 12202.83 CELLS/uL
- ABSOLUTE MONOCYTE [2]: 158 CELLS/uL
- ABSOLUTE SEGMENTED NEUTROPHIL [2]: 1283 CELLS/uL
- BASOPHIL [2]: 0%
- EOSINOPHIL [2]: 0.17%
- ERYTHROCYTE COUNT [2]: 5.88 x10E6/uL
- HEMATOCRIT [2]: 36.62%
- HEMOGLOBIN [2]: 14.07 G/DL
- LEUKOCYTE COUNT [2]: 13.67 x10E3/uL
- LYMPHOCYTE [2]: 89.5%
- MEAN CORPUSCULAR HEMOGLOBIN [2]: 23.95 pg
- MEAN CORPUSCULAR HEMOGLOBIN CONCENTRATION [2]: 38.43 G/DL
- MEAN CORPUSCULAR VOLUME [2]: 62.28 fL
- MONOCYTE [2]: 1.17%
- NEUTROPHIL [2]: 9.17%
- NUCLEATED RED BLOOD CELLS [2]: 0.17 /100WBC
- PLATELET COUNT [2]: 1198 x10E3/uL
- ALANINE AMINOTRANSFERASE [2]: 51 u/L
- ALBUMIN [2]: 4.3 G/DL
- ALKALINE PHOSPHATASE [2]: 343 u/L
- ASPARTATE AMINOTRANSFERASE [2]: 89.83 u/L
- BLOOD UREA NITROGEN [2]: 17.67 mg/dL
- CARBON DIOXIDE [2]: 27.17 mmol/L
- CHLORIDE [2]: 98.33 MEQ/L
- CHOLESTEROL [2]: 82.5 mg/dL
- CREATINE PHOSPHOKINASE [2]: 533.33 u/L
- CREATININE [2]: 0.18 mg/dL
- GLUCOSE [2]: 152.67 mg/dL
- LACTATE DEHYDROGENASE [2]: 220.33 u/L
- LIPASE [2]: 11.5 u/L
- PHOSPHORUS [2]: 11.25 mg/dL
- POTASSIUM [2]: 6.29 MEQ/L
- SODIUM [2]: 140.53 MEQ/L
- TOTAL BILIRUBIN [2]: 0.22 mg/dL
- TOTAL PROTEIN [2]: 6.12 G/DL
- URIC ACID [2]: 1.42 mg/dL
- ABSOLUTE BASOPHIL [3]: 0 CELLS/uL
- ABSOLUTE EOSINOPHIL [3]: 0 CELLS/uL
- ABSOLUTE LYMPHOCYTE [3]: 9283.33 CELLS/uL
- ABSOLUTE MONOCYTE [3]: 29.33 CELLS/uL
- ABSOLUTE SEGMENTED NEUTROPHIL [3]: 1254 CELLS/uL
- BASOPHIL [3]: 0%
- EOSINOPHIL [3]: 0%
- ERYTHROCYTE COUNT [3]: 5.36 x10E6/uL
- HEMATOCRIT [3]: 32.73%
- HEMOGLOBIN [3]: 13 G/DL
- LEUKOCYTE COUNT [3]: 10.57 x10E3/uL
- LYMPHOCYTE [3]: 87.67%
- MEAN CORPUSCULAR HEMOGLOBIN [3]: 24.3 pg
- MEAN CORPUSCULAR HEMOGLOBIN CONCENTRATION [3]: 39.73 G/DL
- MEAN CORPUSCULAR VOLUME [3]: 61.17 fL
- MONOCYTE [3]: 0.33%
- NEUTROPHIL [3]: 12%
- NUCLEATED RED BLOOD CELLS [3]: 0 /100WBC
- PLATELET COUNT [3]: 1056.33 x10E3/uL
- ALANINE AMINOTRANSFERASE [3]: 64.33 u/L
- ALBUMIN [3]: 3.87 G/DL
- ALKALINE PHOSPHATASE [3]: 326.33 u/L
- ASPARTATE AMINOTRANSFERASE [3]: 98.67 u/L
- BLOOD UREA NITROGEN [3]: 14.33 mg/dL
- CARBON DIOXIDE [3]: 30 mmol/L
- CHLORIDE [3]: 99 MEQ/L
- CHOLESTEROL [3]: 78.33 mg/dL
- CREATINE PHOSPHOKINASE [3]: 446 u/L
- CREATININE [3]: 0.19 mg/dL
- GLUCOSE [3]: 155 mg/dL
- LACTATE DEHYDROGENASE [3]: 214 u/L
- LIPASE [3]: 10.67 u/L
- PHOSPHORUS [3]: 11.53 mg/dL
- POTASSIUM [3]: 5.92 MEQ/L
- SODIUM [3]: 142 MEQ/L
- TOTAL BILIRUBIN [3]: 0.17 mg/dL
- TOTAL PROTEIN [3]: 5.57 G/DL
